2 molecules from patent US9572760B2, “Uses of compounds and mixtures from Antrodia cinnamomea mycelia” (Simpson Biotech Co., Ltd., priority 2013, dated 2017) can be followed below.

One test relates to Mouse primary HSC. The experiment in a line: Profibrogenic gene expression in primary hepatic stellate cells (qRT-PCR). The following applies: for Collagen-1 expression / TGF-β expression / TIMP-1 expression / αSMA expression: two concentrations, 72 hrs. In kind it is cell-based. An excerpt: The AML12 (mouse hepatocyte) cells were obtained from the BCRC (Bioresource Collection and Research Center) and cultured in Dulbecco's modified Eagle media (DMEM, Gibco by Invitrogen) with 1% antibiotic antimycotic (Gibco by Invitrogen) and 15% fetal bovine serum (Gibco by Invitrogen). The human Hepatic Stellate Cell, HSC cell line was obtained from the ScienCell Research Laboratory (USA) and cultured in complete medium, Stellate Cell Medium (ScienCell Research Laboratory) with 2% fetal bovine serum (ScienCell Research Laboratory), 1% stellate cell growth supplement (ScienCell Research Laboratory) and 1% penicillin/streptomycin solution (ScienCell Research Laboratory). It is well known that TGF-β1 can activation of HSC, which was used as a positive control, the HSC cells were seeded in plate for 24 h and then the cells were replaced with medium containing 10 ng TGF-β1 (PeproTech, USA). For primary hepatic stellate cell isolation, C57BL/6 mice were anesthetized by intraperitoneal injection of ketamine and xylazine. […] Mouse livers were perfused in situ with 0.5 mM EGTA containing calcium-free salt solution (8 ml/min, 37° C. for 5 minutes), followed by perfusion with 2-step 0.05% collagenase D and pronase containing buffer (Roche Molecular Biochemicals, Indianapolis, Ind.) for 5 and 10 minutes, respectively. The harvested liver was minced gently on a Petri dish and additional incubation with protease containing buffer at 37° C. for 25 minutes. Then, the liver was filtered with 70 μm cell strainer. Cells were centrifuged and collected followed by 8.2% Nycodenz (Accurate Chemical and Scientific Corp.). The cell lines were cultured at 37° C. in a humidified atmosphere containing 5% CO2.
Exponentially growing cells were harvested and seeded in a 6-well microtiter plate. Each well of cells were collected to eppendrof in 1 mL of TRIzol buffer (Invitrogen, Carlsbad, Calif., USA), and then mixed with 0.5 mL chloroform/isoamyl alcohol (24:1), eppendrofs were centrifuged at 12,000×g for 10 min at 4° C. The supernatant was transferred to a fresh tube, and isopropanol was added, mix well and stored at −80° C. overnight. The reaction mixture was centrifuged at 12,000×g for 30 min at 4° C. to produce a rude RNA pallet, the pellet was washed with 70% ethanol and air-dried. The concentrations of total RNA were measured by absorbance at 260 nm using a NanoDrop ND-1000 (NanoDrop, USA).
Reverse transcription reaction was performed using a commercially available set of High Capacity RNA-to-cDNA Kit (Applied Biosystems, USA). cDNA was prepared from 2 μg of total RNA per 20 μl reaction, according to the manufacturer's instructions—37° C. for 60 minutes, 95° C. for 5 minutes, and hold at 4° C. The resulting cDNA was to a final concentration of 100 ng/μl and constituted a matrix in further experiments.
Amplification and detection the gene expression by real-time PCR were performed using StepOne plus Real-time PCR System (Applied Biosystems, USA). Samples were assayed in a 10 μl reaction mixture containing 2 μl of template DNA, 5 μl of 2× TaqMan PCR Master Mix (Applied Biosystems, Life Technologies, Foster City, Calif., USA), 0.5 μl of 20× assay mix containing probe, forward and reverse primer (Applied Biosystems, Life Technologies, Foster City, Calif., USA), whereby qPCR targets with the following information were used: (a) α-SMA, Assay ID Rn01759928_g1, (b) TIMP-1, Assay ID Rn00587558_m1, (c) TGF-β1, Assay ID Rn00572010_m1, (d) Collagen I, Assay ID Rn 01463838_m1, (e) GAPDH, Assay ID Rn1462662_g1. To control variation in mRNA concentration, all results were normalized to the housekeeping gene, GAPDH. Relative quantitation was performed using the comparative ΔΔCt method according to the manufacturer's instructions. The cycling conditions used were as follows: 50° C. for 2 min, 95° C. for 10 min followed by 40 cycles of 95° C. for 15 s and 60° C. for 1 min each. […]

Another test deals with α-SMA and TGF-β1. The experiment in a line: Western blot of α-SMA and TGF-β1 in rabbit ear scar tissue. It is filed as in vivo, New Zealand white rabbits. Conditions: 1% w/v topical; for level of TGF-β1 expression (Western blot): day 14, compared with the control groups; for levels of α-SMA expression (Western blot): relative to the control group. As to the method: (§1) The rabbit ear model of hypertrophic scarring was established. In brief, 12 New Zealand white rabbits, weighing 2.5 to 3.0 kg, were prepared for wounding under sterile conditions. Four 1 cm full thickness circular wounds were created down to the cartilage on the ventral side of each ear using a 1 cm punch biopsy. The perichondrial membrane was then dissected off the cartilage using a surgical blade. The test agents including compound B, C and ACM ethanol extract were applied to the wounds of the experimental group ([…] to each wound) every day in concentrations of 1% w/v for 14 days, while the control group received equal amounts of 1% w/v saline.
The scar tissues were lysed; then the protein samples were denatured and then separated on 10.6% polyacrylamide gels, and transferred to the polyvinylidene difluoride membrane. The membranes were incubated in TBS containing 5% nonfat milk and 0.05% Tween-20 for 1 h at room temperature and blotted with primary antibodies (dilution 1:300) at 4° C. overnight. The membranes were washed with TBST for 15 min the next day. Subsequently, the membranes were incubated with horseradish peroxidase-conjugated affinipure goat anti-rabbit antibody (dilution 1:3000) for 1 h at room temperature and washed with TBST for 21 min. The membranes were then detected using ECL. The western blot results were further analyzed with Quantity One software 4.1.1 (Bio-Rad, Hercules, Calif.)
On the technique in general: In western blotting, separated proteins are transferred to a membrane and probed.

In the next test the test system is cirrhotic animals. The experiment in a line: Liver fibrosis: hydroxyproline content in the liver and Sirius red staining, DEN cirrhotic animal model. The following applies: compound B 7 mg/kg, compound C 14 mg/kg, ACM 320 mg/kg, vs control group.
The next test deals with hypertrophic scarring. Nature of the test: Rabbit ear model of hypertrophic scarring: scar and epidermal thickness, histology. It is filed as in vivo, New Zealand white rabbits. The following applies: for mean epidermal thickness (ETI) / mean scar thickness (SEI): 1% w/v applied to wounds every day for 14 days; for mean epidermal thickness (ETI): control 5.08±0.44; for mean scar thickness (SEI): day 14, control 3.71±0.31; for histology: dermis layer of scars: treated for 14 day, 1% w/v. As to the method:
as §1

As to `CC(C)=CCOc1ccc(C2=C(CC(C)C)C(=O)NC2=O)cc1` [Compound B, 3-isobutyl-4-[4-(3-methyl-2-butenyloxy)phenyl]-1H-pyrrol-2,5-dione], in the test on Mouse primary HSC, the “anti-fibrosis effect on primary HSC (summary)” value is “anti-fibrosis effect”, the Collagen-1 expression result was “dose-dependent effect”, the TGF-β expression entry is on record as “dose-dependent effect” and the TIMP-1 expression entry is recorded as “dose-dependent effect”. Besides, the αSMA expression result in the test on Mouse primary HSC is listed as “dose-dependent effect”. Besides, in the test with α-SMA and TGF-β1, the “level of TGF-β1 expression (Western blot)” value was “significantly decreased” and the “levels of α-SMA expression (Western blot)” value is “decreased”. For the same molecule, the “liver cirrhosis (hydroxyproline levels and Sirius red-positive areas)” value with cirrhotic animals is given as “markedly ameliorated”. Besides, in the test on hypertrophic scarring, the “mean epidermal thickness (ETI)” value stood at 2.23±0.31, the “mean scar thickness (SEI)” value came to 1.93±0.51 and the “histology: dermis layer of scars” value is “not significantly thickened”.
Regarding `CC(C)=CCOc1ccc(C2=C(CC(C)C)C(=O)N(O)C2=O)cc1` [Compound C, 3-isobutyl-4-[4-(3-methyl-2-butenyloxy)phenyl]-1H-pyrrol-1-ol-2,5-dione], in the test with Mouse primary HSC, the “anti-fibrosis effect on primary HSC (summary)” value is given as “anti-fibrosis effect”, the Collagen-1 expression entry is reported as “dose-dependent effect”, the TGF-β expression result is “dose-dependent effect” and the TIMP-1 expression result is “dose-dependent effect”. The αSMA expression result with Mouse primary HSC was “dose-dependent effect”. Moreover, in the test with α-SMA and TGF-β1, the “level of TGF-β1 expression (Western blot)” value is on record as “significantly decreased” and the “levels of α-SMA expression (Western blot)” value was “decreased”. Moreover, the “liver cirrhosis (hydroxyproline levels and Sirius red-positive areas)” value with cirrhotic animals is listed as “markedly ameliorated”. In addition, in the test with hypertrophic scarring, the “mean epidermal thickness (ETI)” value turned out to be 3.10±0.14, the “mean scar thickness (SEI)” value was 2.10±0.24 and the “histology: dermis layer of scars” value was “not significantly thickened”.
